Activity calls are given as the source filed them.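 Rule for the calls: active = fitted curve reaches a 40% rise in fluorescent cells at or below the top valid dose; inactive = opposite-direction effect, or the rest.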
Test: autofluorescent compounds in non-GFP fibroblasts, dose response, artefact control for X-chromosome reactivation project, imaging, mTEFS fibroblasts, cherry-pick (AID 743396);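 note: raw share of Hoechst-counted cells scored GFP positive without control normalization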
Conditions: mTEFS fibroblasts autofluorescence, GFP-channel imaging, 3 days, at 19.5 µM (top of the series)

SMILES: Cn1c(=O)c2[nH]c(-c3ccc(S(=O)(=O)O)cc3)nc2n(C)c1=O
- % fluorescent cells increase (cells pretreated with 5-aza-dC): 0.085% (inactive)

SMILES: COc1ccc(N2C(=O)C3CCCN3C2c2cccc(OC)c2)cc1 (stereo unspecified)
- % fluorescent cells increase (cells pretreated with 5-aza-dC): 0.021% (inactive)

SMILES: Cc1c(Nc2cc(Cl)c3nonc3c2[N+](=O)[O-])c(=O)n(-c2ccccc2)n1C
- % fluorescent cells increase (cells pretreated with 5-aza-dC): -0.007% (inactive)

SMILES: COC(=O)c1ccc(CNC(=O)COC(=O)c2cc(Cl)ccc2O)cc1
- % fluorescent cells increase (cells pretreated with 5-aza-dC): 0% (inactive)

SMILES: COc1ccc(CCn2c(C)cc(C(=O)CN3C(=O)C(=O)N(Cc4ccco4)C3=O)c2C)cc1
- % fluorescent cells increase (cells pretreated with 5-aza-dC): 0% (inactive)

SMILES: CCOC(=O)C1=c2/c(=C/c3ccncc3)c(N)c(C(=O)OC)n2C(=O)C(c2ccncc2)S1 (stereo unspecified)
- % fluorescent cells increase (cells pretreated with 5-aza-dC): 0.042% (inactive)

SMILES: O=C(N/N=C/c1ccc(Br)s1)c1ccc([N+](=O)[O-])cc1
- % fluorescent cells increase (cells pretreated with 5-aza-dC): -0.007% (inactive)

SMILES: C/C=C/c1ccc(C2[C@H]3CNC[C@@H]2N3Cc2cc(-c3ccccc3)on2)cc1 (stereo partly specified)
- % fluorescent cells increase (cells pretreated with 5-aza-dC): -0.166% (inactive)

SMILES: CO[C@H]1CN(C)C(=O)c2ccc(NC(=O)C3CCCCC3)cc2OC[C@H](C)NC[C@@H]1C
- % fluorescent cells increase (cells pretreated with 5-aza-dC): 0.009% (inactive)

SMILES: COc1cccc(CNC(=O)c2ccc(NC(=O)CC3SC(N4CCCC4)=NC3=O)cc2)c1 (stereo unspecified)
- % fluorescent cells increase (cells pretreated with 5-aza-dC): 0% (inactive)

SMILES: Cc1cccc(OCC(=O)N(C)c2c(N)n(Cc3ccccc3)c(=O)[nH]c2=O)c1C
- % fluorescent cells increase (cells pretreated with 5-aza-dC): 0.02% (inactive)

SMILES: Cc1cc(C(=O)Nc2ccc(Cl)c(S(=O)(=O)N3CCOCC3)c2)c2ccccc2n1
- % fluorescent cells increase (cells pretreated with 5-aza-dC): 0.116% (inactive)

SMILES: NNC(=O)c1sc(-c2ccccc2)cc1N
- % fluorescent cells increase (cells pretreated with 5-aza-dC): 1.36% (inactive)

SMILES: COc1ccc2c3c([nH]c2c1)[C@@H](CO)N(Cc1ccccc1F)CC31CN(C(=O)C2CCOCC2)C1
- % fluorescent cells increase (cells pretreated with 5-aza-dC): -0.038% (inactive)

SMILES: CC(=O)NC(c1ccc(Cl)cc1)c1c(O)ccc2ccc(O)cc12 (stereo unspecified)
- % fluorescent cells increase (cells pretreated with 5-aza-dC): 0.001% (inactive)

SMILES: COP(=S)(OC)Oc1ccc(Sc2ccc(OP(=S)(OC)OC)cc2)cc1
- % fluorescent cells increase: 0.075% (inactive)

SMILES: CC1CC(C)CN(C(=O)C(C)N2CCN(S(=O)(=O)c3ccccc3F)CC2)C1 (stereo unspecified)
- % fluorescent cells increase (cells pretreated with 5-aza-dC): 0.338% (inactive)

SMILES: O=C(N/N=C/c1ccc2cccnc2c1)c1nc2ccccc2c(=O)[nH]1
- % fluorescent cells increase (cells pretreated with 5-aza-dC): 0.022% (inactive)

SMILES: COc1cc(NC(C)CCc2ccccc2)cc(OC)c1OC (stereo unspecified)
- % fluorescent cells increase (cells pretreated with 5-aza-dC): 0% (inactive)

SMILES: Cc1ccc(S(=O)(=O)N(C)c2ccc(C)c([N+](=O)[O-])c2)cc1
- % fluorescent cells increase (cells pretreated with 5-aza-dC): 0.055% (inactive)

SMILES: Nc1[nH]c(=O)nc(Nc2ccccc2)c1N=O
- % fluorescent cells increase (cells pretreated with 5-aza-dC): 0% (inactive)

SMILES: Nc1nc(Nc2ccc(Cl)cc2)c(NC=O)c(=O)[nH]1
- % fluorescent cells increase (cells pretreated with 5-aza-dC): 18.8% (inactive)

SMILES: Cc1ccc(-c2nc3ccc(Br)cn3c2Cc2ccccc2C(F)(F)F)cc1
- % fluorescent cells increase (cells pretreated with 5-aza-dC): 0.042% (inactive)

SMILES: COc1cccc(CNC(=O)c2cc(S(=O)(=O)N3CCOCC3)cn2C)c1
- % fluorescent cells increase (cells pretreated with 5-aza-dC): 0.274% (inactive)

SMILES: COc1cccc(CNC(=O)C(Cc2ccccc2)n2cccc2)c1 (stereo unspecified)
- % fluorescent cells increase (cells pretreated with 5-aza-dC): 0% (inactive)

SMILES: CC(C)OC(=O)/C(=C\c1cccnc1)NC(=O)c1ccccc1
- % fluorescent cells increase (cells pretreated with 5-aza-dC): 0.013% (inactive)

SMILES: COc1ccc2c(c1)c(/C=N/Nc1nc3ccccc3[nH]1)c(C)n2C
- % fluorescent cells increase (cells pretreated with 5-aza-dC): 3.71% (inactive)

SMILES: Cc1nn2c(NCCCN(C)C)c3c(nc2c1-c1ccccc1)CCCC3
- % fluorescent cells increase (cells pretreated with 5-aza-dC): -0.007% (inactive)

SMILES: Nc1c(-c2ccccc2)c(CN2CCOCC2)nn1-c1ccc(C(=O)O)cc1
- % fluorescent cells increase (cells pretreated with 5-aza-dC): 0% (inactive)

SMILES: NC(=NC(=O)c1cccc(C(F)(F)F)c1)c1ccc(C(F)(F)F)cn1
- % fluorescent cells increase (cells pretreated with 5-aza-dC): 0% (inactive)

SMILES: CNC(=O)C[C@H]1C(=O)N(c2ccccc2)C[C@@H]1C
- % fluorescent cells increase (cells pretreated with 5-aza-dC): 0% (inactive)

SMILES: CC(=O)Oc1ccc2c(=O)c(-c3ccccc3)coc2c1
- % fluorescent cells increase (cells pretreated with 5-aza-dC): 0.02% (inactive)

SMILES: Cc1ccccc1NC(=O)CN1C(=O)S/C(=C\c2ccc(-c3cc(C(=O)O)ccc3C)o2)C1=O
- % fluorescent cells increase (cells pretreated with 5-aza-dC): 0% (inactive)

SMILES: C[C@@H]1CN([C@H](C)CO)C(=O)c2cc(NS(=O)(=O)c3ccccc3)ccc2O[C@@H](C)CCCCO[C@@H]1CN(C)Cc1ccc2c(c1)OCO2
- % fluorescent cells increase (cells pretreated with 5-aza-dC): 3.87% (inactive)

SMILES: O=C(N/N=C/c1ccc([N+](=O)[O-])o1)c1cc2ccccc2o1
- % fluorescent cells increase (cells pretreated with 5-aza-dC): 1.73% (inactive)

SMILES: O=C(OCc1cc(=O)n2c(n1)sc1ccccc12)c1ccc(O)cc1O
- % fluorescent cells increase (cells pretreated with 5-aza-dC): -0.007% (inactive)

SMILES: Cc1cc(NC(=O)CSc2nnc(-c3c[nH]c4ccccc34)n2-c2ccc(F)cc2)no1
- % fluorescent cells increase (cells pretreated with 5-aza-dC): 0.026% (inactive)

SMILES: Cc1ncsc1C(=O)Nc1cccc(C(F)(F)F)c1
- % fluorescent cells increase (cells pretreated with 5-aza-dC): 0.019% (inactive)

SMILES: Cc1ccc(S(=O)(=O)N(C)C[C@H]2Oc3ccc(NC(=O)Nc4ccccc4)cc3CC(=O)N([C@H](C)CO)C[C@@H]2C)cc1
- % fluorescent cells increase (cells pretreated with 5-aza-dC): 0% (inactive)

SMILES: COc1ccc(NS(=O)(=O)c2ccc(NC(C)=O)cc2)nn1
- % fluorescent cells increase (cells pretreated with 5-aza-dC): -0.003% (inactive)

SMILES: Cc1cccc2sc(N(CCCN(C)C)C(=O)CN3C(=O)c4ccccc4C3=O)nc12
- % fluorescent cells increase (cells pretreated with 5-aza-dC): 0% (inactive)

SMILES: O=C1c2ccccc2C(=Cc2cccnc2)c2ccccc21
- % fluorescent cells increase (cells pretreated with 5-aza-dC): 0.125% (inactive)

SMILES: Cc1c(/C=N\NC(=O)c2cc3ccccc3o2)c2ccccc2n1C
- % fluorescent cells increase (cells pretreated with 5-aza-dC): 0% (inactive)

SMILES: NNC(=O)c1sc(-c2ccc(Cl)cc2)cc1N
- % fluorescent cells increase (cells pretreated with 5-aza-dC): 0.125% (inactive)

SMILES: Oc1cc2c(c(Cl)c1O)CCNCC2c1ccccc1 (stereo unspecified)
- % fluorescent cells increase (cells pretreated with 5-aza-dC): -0.007% (inactive)

SMILES: CCCCC(=O)N(C)c1c(CC)nc2c(OCC(=O)c3ccc(F)cc3)cccn12
- % fluorescent cells increase (cells pretreated with 5-aza-dC): 3.76% (inactive)

SMILES: O=C(CCC(=O)Nc1cccnc1)Nc1cccnc1
- % fluorescent cells increase (cells pretreated with 5-aza-dC): 0.042% (inactive)

SMILES: CN(C)C(=O)C[C@@H]1C=C[C@H](NS(=O)(=O)c2ccccc2)[C@@H](CO)O1
- % fluorescent cells increase (cells pretreated with 5-aza-dC): 0% (inactive)

SMILES: Cc1nnc(-c2ccc(N3CCCCCC3)c([N+](=O)[O-])c2)o1
- % fluorescent cells increase (cells pretreated with 5-aza-dC): 0% (inactive)

SMILES: CC(=O)N/C(N)=N/c1nc(=O)c2ccccc2s1
- % fluorescent cells increase (cells pretreated with 5-aza-dC): 0.24% (inactive)

SMILES: Cc1[nH]c2ccc(Br)cc2c(=O)c1CN1CCCCCC1
- % fluorescent cells increase (cells pretreated with 5-aza-dC): 0% (inactive)

SMILES: Cc1[nH]c2ccccc2c1/C=N/Nc1nc2ccccc2[nH]1
- % fluorescent cells increase (cells pretreated with 5-aza-dC): 0% (inactive)

SMILES: CN(c1ccccc1)S(=O)(=O)c1ccc(C(=O)NCC(c2ccco2)N2CCCCC2)cc1 (stereo unspecified)
- % fluorescent cells increase (cells pretreated with 5-aza-dC): 6.89% (inactive)

SMILES: COc1ccc(S(=O)(=O)Nc2cccc3c2O[C@H](CN(C)S(=O)(=O)c2cn(C)cn2)[C@H](C)CN([C@H](C)CO)C3=O)cc1
- % fluorescent cells increase (cells pretreated with 5-aza-dC): 0.016% (inactive)

SMILES: CCOC(=O)c1c(C)[nH]c(N=Nc2ccc(OC)cc2)c1C
- % fluorescent cells increase (cells pretreated with 5-aza-dC): 0.028% (inactive)

SMILES: Cc1ccc(OCCN2CCN(CC(O)Cn3c4ccccc4c4ccccc43)CC2)cc1 (stereo unspecified)
- % fluorescent cells increase (cells pretreated with 5-aza-dC): 3.56% (inactive)

SMILES: COc1ccc(NC(=O)Nc2ccc3c(c2)CC(=O)N([C@H](C)CO)C[C@H](C)[C@@H](CN(C)S(=O)(=O)c2ccc(F)cc2)O3)cc1
- % fluorescent cells increase (cells pretreated with 5-aza-dC): 2.89% (inactive)

SMILES: Nc1ccccc1C#CC(=O)c1ccccc1
- % fluorescent cells increase (cells pretreated with 5-aza-dC): 0% (inactive)

SMILES: O=C(C[C@@H]1C[C@@H]2c3cc(NC(=O)C4CCC4)ccc3O[C@@H]2[C@@H](CO)O1)NCc1ccc(Cl)cc1
- % fluorescent cells increase (cells pretreated with 5-aza-dC): 0.34% (inactive)

SMILES: CCc1ccccc1OCC(=O)Nc1ccc(N2CCCC2)cc1C
- % fluorescent cells increase (cells pretreated with 5-aza-dC): 0.096% (inactive)

SMILES: COc1cc(/C=C/c2ccc3cccc(O)c3n2)c(Br)cc1O
- % fluorescent cells increase (cells pretreated with 5-aza-dC): 0% (inactive)

Source: PubChem BioAssay AID743396 (Broad Institute, 2014)
